# Experimental data taken from patent publication US8592422B2, “Bicyclic triazole and pyrazole lactams as allosteric modulators of mGluR5 receptors” (Vanderbilt University, priority 2010, dated 2013).
# Where two headings read alike, the source gives them in different places.
# How the values were obtained:
# human mGluR5a receptor = target: T1, human mGluR5a receptor (Homo sapiens, UniProt P41594); test: Cell-based functional Ca2+ mobilization assay (FDSS), potentiation of glutamate EC20 response; details: for EC50 / pEC50: HEK cells transfected with human mGluR5 (H10H or H12H), in presence of EC20 glutamate; for Emax / Emax (%): maximum % effect in concentration-response curve, as percent of response to maximally effective glutamate
# T1 construct: cDNA subcloned into pcDNA3.1(-)
# How it was run: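 HEK293A cells stably expressing human mGluR5a (H10H or H12H clones), plated overnight in glutamate-glutamine-free medium, loaded with Ca2+-sensitive dye (e.g. Fluo-4) and read on FDSS.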
# T1 sequence (P41594 21-1180 isoform P41594-2 limits assumed): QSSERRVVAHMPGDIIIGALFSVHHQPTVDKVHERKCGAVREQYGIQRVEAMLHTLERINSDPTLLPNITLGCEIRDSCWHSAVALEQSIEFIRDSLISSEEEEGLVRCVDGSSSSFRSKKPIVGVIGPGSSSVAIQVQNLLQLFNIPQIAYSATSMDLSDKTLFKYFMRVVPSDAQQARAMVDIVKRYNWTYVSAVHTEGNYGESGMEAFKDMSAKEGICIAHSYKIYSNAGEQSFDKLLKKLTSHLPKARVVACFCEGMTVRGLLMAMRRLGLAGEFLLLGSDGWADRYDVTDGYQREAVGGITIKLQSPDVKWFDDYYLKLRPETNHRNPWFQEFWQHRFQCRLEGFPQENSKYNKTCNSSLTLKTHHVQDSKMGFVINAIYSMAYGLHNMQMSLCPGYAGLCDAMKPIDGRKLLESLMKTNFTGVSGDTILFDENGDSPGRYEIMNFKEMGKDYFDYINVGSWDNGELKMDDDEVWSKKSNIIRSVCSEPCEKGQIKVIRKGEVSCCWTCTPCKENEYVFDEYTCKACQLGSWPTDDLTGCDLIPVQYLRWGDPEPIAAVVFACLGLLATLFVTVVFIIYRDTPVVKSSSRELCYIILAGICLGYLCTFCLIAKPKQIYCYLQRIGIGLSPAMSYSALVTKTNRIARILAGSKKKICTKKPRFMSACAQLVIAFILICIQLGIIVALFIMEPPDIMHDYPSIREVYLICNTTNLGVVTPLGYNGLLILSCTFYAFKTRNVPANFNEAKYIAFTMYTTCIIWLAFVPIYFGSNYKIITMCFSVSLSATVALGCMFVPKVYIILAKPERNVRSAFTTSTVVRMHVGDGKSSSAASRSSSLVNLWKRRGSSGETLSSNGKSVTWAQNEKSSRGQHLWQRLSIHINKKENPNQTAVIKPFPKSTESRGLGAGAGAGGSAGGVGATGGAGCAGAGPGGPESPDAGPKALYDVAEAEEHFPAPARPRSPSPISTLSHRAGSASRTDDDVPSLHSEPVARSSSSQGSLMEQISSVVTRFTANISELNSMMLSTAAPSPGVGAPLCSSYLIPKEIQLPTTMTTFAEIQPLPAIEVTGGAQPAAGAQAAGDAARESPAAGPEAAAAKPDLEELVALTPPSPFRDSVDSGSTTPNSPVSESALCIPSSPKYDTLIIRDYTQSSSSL
melting point [°C],EC50 (human mGluR5a receptor; read-out: EC50) [nM],Emax (human mGluR5a receptor) [%],EC50 (human mGluR5a receptor; read-out: pEC50 (converted)) [nM],pEC50 (human mGluR5a receptor),Emax (%) (human mGluR5a receptor),SMILES
202.6,437,53,,,,N#Cc1ccnc(OCc2cc3n(n2)CCN(c2ccc(F)cc2)C3=O)c1 [Example 193]
121.2,,74,40.7,,,CN(C)c1cccc(N2CCn3nc(COc4cccc(F)c4)cc3C2=O)n1 [Example 316]
132.8,427,57,,,,Cc1ccccc1OCc1cc2n(n1)CCN(c1ccc(F)cc1)C2=O [Example 191]
141.7,750,67,,,,Cc1cnc(C)c(N2CCn3nc(COc4ccccc4)cc3C2=O)n1 [Example 120]
> 300,240,72,,,,COc1nc(N2CCn3nc(COc4ccc(F)cc4)cc3C2=O)ncc1F [Example 318]
> 300,98,80,,,,O=C1c2cc(COc3ccccc3)nn2CCN1c1ccc(F)c(F)c1 [Example 7]
94.6,,70,32.4,,,Cc1cc(N2C(=O)c3cc(COc4ccccc4)nn3C[C@H]2C)ccc1F [Example 144]
156.6,> 30200,21,,,,Cc1cncc(OCc2cc3n(n2)CCN(c2ccc(F)cc2)C3=O)n1 [Example 200]
117.9,54,63,,,,Cc1ccc(N(C)C)nc1N1CCn2nc(COc3ccccc3)cc2C1=O [Example 291]
> 300,92,80,,,,O=C1c2cc(COc3ccccc3)nn2CCN1CC1CCC1 [Example 27]
266.9,280,61,,,,COc1cnc(N2CCn3nc(COc4ccccc4)cc3C2=O)nc1 [Example 353]
149.5,631,68,,,,O=C1c2cc(COc3ccncc3)nn2CCN1c1ccc(F)cc1 [Example 160]
171.5,29,72,29.5,,,Cc1ccccc1N1C(=O)c2cc(COc3ccccc3)nn2C[C@H]1C [Example 154]
182.5,95,64,,,,Cc1cccc(OCc2cc3n(n2)CCN(c2ccc(F)cc2)C3=O)c1 [Example 166]
194.5,,68,28.8,,,Cc1ccc(N2CCn3nc(COc4ccccc4)cc3C2=O)s1 [Example 319]
71.9,195,66,,,,C[C@@H]1Cn2nc(COc3ccccc3)cc2C(=O)N1c1ccc(F)cn1 [Example 141]
> 300,> 30200,25,,,,CN(C)c1ccnc(OCc2cc3n(n2)CCN(c2ccc(F)cc2)C3=O)c1 [Example 312]
134.7,91,72,,,,Cc1cc(N2CCn3nc(COc4ccccc4)cc3C2=O)ncc1F [Example 72]
101.8,93,68,,,,CC(C)c1cccc(N2CCn3nc(COc4ccccc4)cc3C2=O)n1 [Example 111]

melting point [°C],EC50 (human mGluR5a receptor; read-out: EC50) [nM],Emax (human mGluR5a receptor) [%],EC50 (human mGluR5a receptor; read-out: pEC50 (converted)) [nM],pEC50 (human mGluR5a receptor),Emax (%) (human mGluR5a receptor),SMILES
> 300,540,79,,,,COc1nc(N2C(=O)c3cc(COc4ccccc4)nn3C[C@H]2C)ncc1C [Example 156]
130.4,350,63,355,,,COc1cccc(N2CCn3nc(COc4ccc(F)cc4)cc3C2=O)c1 [Example 220]
127.8,110,64,,,,COc1cc(F)cc(N2CCn3nc(COc4ccccc4)cc3C2=O)c1 [Example 299]
153.8,> 30200,26,,,,CN(C)c1cccc(OCc2cc3n(n2)CCN(c2ccc(F)cc2)C3=O)n1 [Example 310]
145.3,,64,17.8,,,COc1nc(N2CCn3nc(COc4ccccc4)cc3C2=O)ccc1C [Example 108]
179.5,> 10000,50,,,,O=C1c2cc(COc3ncccn3)nn2CCN1c1ccc(F)cc1 [Example 194]
115.8,130,57,,,,CCOc1cccc(N2CCn3nc(COc4ccccc4)cc3C2=O)c1 [Example 59]
145.5,174,71,,,,COc1ncccc1N1C(=O)c2cc(COc3ccccc3)nn2C[C@H]1C [Example 148]
64.6,240,66,,,,C[C@@H]1Cn2nc(COc3ccccc3)cc2C(=O)N1CC1CC1 [Example 137]
> 300,1200,81,,,,Cc1ccc(N2CCn3nc(COc4ccccc4)cc3C2=O)cn1 [Example 23]
148.2,98,63,100,,,Cc1ccccc1N1CCn2nc(COc3ccc(F)cc3)cc2C1=O [Example 223]
203.7,> 30200,23,,,,Cn1cnc(N2CCn3nc(COc4ccccc4)cc3C2=O)c1 [Example 321]
239.3,813,56,,,,O=C1c2cc(COc3ccccc3)nn2CCN1c1cnccn1 [Example 87]
,88,,,7.06,60,Cc1nc2cc(N3CCn4nc(COc5ccccc5)cc4C3=O)ccc2s1 [Example 367]
,120,65,,,,COc1cc(N2CCn3nc(COc4ccc(F)cc4)cc3C2=O)ccc1F [Example 228]
,65,,,7.19,71,COc1nc(N2CCn3nc(COc4ccccc4)cc3C2=O)ncc1F [Example 91]
,138,,,6.86,74,CC1Cn2nc(COc3ccc(F)cc3)cc2C(=O)N1c1ccc(F)cc1 (stereo not shown) [Example 245]
,1020,,,5.99,64,O=C1c2cc(COc3ccccn3)nn2CCN1c1ccc(F)cn1 [Example 172]
,1550,,,5.81,61,Cc1ccnc(N2CCn3nc(COc4ccccc4)cc3C2=O)n1 [Example 82]

melting point [°C],EC50 (human mGluR5a receptor; read-out: EC50) [nM],Emax (human mGluR5a receptor) [%],EC50 (human mGluR5a receptor; read-out: pEC50 (converted)) [nM],pEC50 (human mGluR5a receptor),Emax (%) (human mGluR5a receptor),SMILES
,> 30200,,,<4.52,36,O=C1c2cc(COc3ccccc3)nn2CCN1c1cccc(C2CCNCC2)n1 [Example 275]
,410,,,6.39,63,Cc1cccc(N2CCn3nc(COc4ccccn4)cc3C2=O)c1 [Example 216]
,589,,,6.23,73,CC1Cn2nc(COc3ccccn3)cc2C(=O)N1c1ccc(F)cc1 (stereo not shown) [Example 247]
,575,,,6.24,80,O=C1c2cc(COc3ccccc3)nn2CCN1c1ccncc1F [Example 29]
,76,,,7.11,64,Cc1ccc(N2CCn3nc(COc4ccc(F)cc4)cc3C2=O)cc1 [Example 222]
,> 10000,,,<5.00,75,COc1ccc(N2CCn3nc(COc4ccccc4)cc3C2=O)nn1 [Example 89]
,2820,,,5.55,53,CN(C)c1ccc(N2CCn3nc(COc4ccccc4)cc3C2=O)nn1 [Example 284]
,42,,,7.38,66,CN(C)c1cccc(N2CCn3nc(COc4ccc(F)cc4)cc3C2=O)n1 [Example 317]
,190,,,6.72,77,COCc1cc(F)ccc1N1CCn2nc(COc3ccccc3)cc2C1=O [Example 304]
,3720,,,5.43,60,O=C1c2cc(COc3ccncn3)nn2CCN1c1ccc(F)cc1 [Example 199]
,> 30200,,,<4.52,14,O=C1c2c(Cl)c(COc3ccccc3)nn2CCN1CC1CC1 [Example 259]
,100,,,7.00,56,"Cc1nc(N2CC(C)n3nc(COc4ccccc4)cc3C2=O)ccc1F (single isomer, unassigned) [Example 135]"
,72,,,7.14,82,O=C1c2cc(COc3ccccc3)nn2CCN1c1ccc(F)cc1 [Example 6]
,437,72,,,,COCCOc1cccc(N2CCn3nc(COc4ccccc4)cc3C2=O)n1 [Example 85]
,> 10000,,,<5.00,44,Cc1[nH]ncc1N1CCn2nc(COc3ccccc3)cc2C1=O [Example 322]
,2240,,,5.65,60,O=C1c2cc(COc3ccccc3)nn2CC(CO)N1c1ccc(F)cc1 (stereo not shown) [Example 265]
,74,,,7.13,63,COc1ccc(C)c(N2CCn3nc(COc4ccccc4)cc3C2=O)n1 [Example 109]
,871,,,6.06,69,O=C1c2cc(COc3ccccc3)nn2CCN1c1ccccn1 [Example 12]
,75,,,7.12,60,"Cc1nc2cc(N3CC(C)n4nc(COc5ccccc5)cc4C3=O)ccc2s1 (single isomer, unassigned) [Example 376]"

SMILES,melting point [°C],EC50 (human mGluR5a receptor; read-out: EC50) [nM],Emax (human mGluR5a receptor) [%],EC50 (human mGluR5a receptor; read-out: pEC50 (converted)) [nM],pEC50 (human mGluR5a receptor),Emax (%) (human mGluR5a receptor)
O=C1c2cc(COc3ccccc3)nn2CCN1c1ccc(F)cn1 [Example 11],,155,,,6.81,79
